Data set [1] in a line: PK of DFO in plasma of mice after liposomal DFO or Desferal. In kind it is in vivo, CF-1 female mice. The note with it: 100 mg/kg. How it is done:
Liposomes containing egg PC/Chol (3 mol/2 mol, LDFO-1), egg PC/DOPG/Chol (2.7 mol/0.3 mol/2 mol, LDFO-2), and HSPC/Chol (3 mol/2 mol, LDFO-4) containing 500 mM ammonium sulfate were prepared as in Example 1. DFO was remote loaded as in Example 20.
After loading the liposomes were purified by dialysis versus HBS pH 6.5. The liposomes were sterilized by filtration through 0.2 um PES filters and analyzed for drug and lipid content. The liposomal DFO were administered to CF-1 female mice at 100 mg/kg (n=3) and at various times the animals were sacrificed and blood taken.
After processing to plasma, DFO was extracted from plasma by mixing with 6 volumes of methanol containing 0.1% trifluoroacetic acid in an eppendorf tube. The mixtures were vortexed twice for 10 seconds then placed at −80° C. for 1 h. The samples were thawed and centrifuged for 12,000 rpm for 10 min at 4° C. and the supernatant analyzed for DFO by HPLC as described herein. […] By comparison DFO was undetectable beyond 1 h after dosing with Desferal®.

Data set [2] deals with Iron Overloaded Mouse Model. As to the kind of experiment: Liver iron removal from iron overloaded mouse model (ferrozine assay). In kind it is in vivo. The conditions noted are these: iron-dextran overloaded mice, IV 100 mg/kg chelator on day 7 and day 10. The method, then: LDFO formulations were prepared as described in Example 1. Both formulations were composed of HSPC/cholesterol (3/0.5 (mol/mol)). One formulation was prepared using 250 mM ammonium sulfate (LDFO-AS) as the trapping agent and the second formulation was prepared using 250 mM ascorbate phosphate (LDFO-AP) as the trapping agent and all other components and DFO loading procedures of the formulations were identical. Mice were overloaded with a single IV injection of iron-dextran at 100 mg/kg Fe. Overloaded mice were treated with each formulation IV at 100 mg/kg chelator on day 7 and day 10. The mice were sacrificed after the second treatment and the livers were analyzed for iron content using a ferrozine assay (Riemer et al. 2004)

Structures can show the parent of a compound that is named as a salt.

In the case of `CC(=O)N(O)CCCCCNC(=O)CCC(=O)N(O)CCCCCNC(=O)CCC(=O)N(O)CCCCCN` [Desferal, deferoxamine mesylate], in data set [1] (beyond 1 h after dosing), the “DFO in plasma after dosing” value is listed as “undetectable”. Further, the “initial dose (ID) of DFO retained in the plasma at 24 h” value in data set [1] (IV, 24 h) is “undetectable”. Further, the “mean liver iron content after treating” value in data set [2] amounted to 229 mg/kg.
